Patent US9334280B2, “Synthetic rigidin analogues as anticancer agents, salts, solvates and prodrugs thereof, and method of producing same” (New Mexico Technical Research Foundation, priority 2012, dated 2016)
Where two headings read alike, the source gives them in different places.

Experiments:
[1] = tested on: HeLa cervical adenocarcinoma cells; test: MTT antiproliferative assay, HeLa; type: cell-based; conditions: Homo sapiens, MTT, ± SD, read-out: GI50 in vitro Values, HeLa
Procedure: (§1) Human T-cell leukemia cell line Jurkat (ATCC TIB-152, E6-1 clone) was cultured in RPMI-1640 (Invitrogen) supplemented with 10% FBS (Invitrogen), 100 mg/L penicillin G, 100 mg/L streptomycin, 1.0 mM sodium pyruvate, 1.5 g/L sodium bicarbonate, and 4.5 g/L glucose (all from Sigma). Human cervical cancer cell line HeLa (ATCC S3) was cultured in DMEM (Invitrogen) supplemented with 10% FBS, 100 mg/L penicillin G, and 100 mg/L streptomycin. MCF-7 (human mammary carcinoma) cells were cultured in DMEM supplemented with 1.0 mM sodium pyruvate, 1% GlutaMax™-1 (Invitrogen), 100 μg/mL penicillin, 100 μg/mL streptomycin, and 10% FBS. Human uterine sarcoma MES-SA and MES-SA/Dx5 cells were cultured in RPMI-1640 medium supplemented with 10% FBS, 100 mg/L penicillin G and 100 mg/L streptomycin. All cells were incubated at 37° C. in a humidified atmosphere with 5% CO2. The other cell lines were maintained in a similar fashion as previously described.
(§2) To evaluate antiproliferative properties of the compounds of Formula I, mitochondrial dehydrogenase activities were measured using the MTT assay. The cell lines were prepared by trypsinizing and seeding […] cells per well into microplates. All compounds were reconstituted in dimethyl sulfoxide (DMSO) at a concentration of either 100 mM or 25 mM prior to treatment. The cells were grown for 24 hrs before treatment at concentrations ranging from 0.004 to 100 microM and incubated for 48 hrs in 200 microL media. 20 microL of MTT reagent in serum free medium (5 mg/mL) was added to each well and incubated further for 2 hrs. Media was removed and the resulting formazan crystals were re-solubilized in 100 microL of DMSO and the optical density (OD) was measured using a Thermomax Molecular Device plate reader at a wavelength of 490 nm. The experiments were performed in quadruplicate and repeated at least twice for each compound per cell line. Cells treated with 0.1% DMSO were used as a negative control, while phenyl arsine oxide (PAO) was used as a positive killing control.
(§3) Human cancer cell lines were obtained from the American Type Culture Collection (ATCC, Manassas, Va., USA), the European Collection of Cell Culture (ECACC, Salisbury, UK) and the Deutsche Sammlung von Mikroorganismen and Zellkulturen (DSMZ, Braunschweig, Germany). Human cervical adenocarcinoma HeLa cells were cultured in DMEM supplemented with 10% fetal bovine serum (FBS). Human mammary carcinoma MCF-7 cells were cultured in RPMI supplemented with 10% FBS. The U87 and U373 cells were cultured in DMEM culture medium (Lonza code 12-136F, Vervier, Belgium), while the SKMEL-28 and A549 cells were cultured in RPMI culture medium (Lonza; code 12-115F) supplemented with 10% heat-inactivated FBS (Lonza, FBS South America code DE14-801F). […] All cell lines were cultured in T25 flasks, maintained and grown at 37° C., 95% humidity, 5% CO2.
(§4) To evaluate antiproliferative properties of the synthesized compounds, the MTT assay was used. The cell lines were assessed by trypsinizing each cell line and seeding 4×10^3 cells per well into 96-well plates. All compounds were dissolved in DMSO at a concentration of either 100 mM or 50 mM prior to cell treatment. The cells were grown for 24 h and then treated with compounds at concentrations ranging from 0.04 to 100 μM and incubated for 48 h in 200 μL media. 20 μL of MTT reagent in serum free medium (5 mg/mL) was added to each well and incubated further for 2 h. Media was removed, and the resulting formazan crystals were re-solubilized in 200 μL of DMSO. A490 was measured using a Thermomax Molecular Device plate reader. The experiments were performed in quadruplicate and repeated at least twice for each compound per cell line. Cells treated with 0.1% DMSO were used as a control, and 1 μM phenyl arsine oxide (PAO) was used as a positive killing control.

[2] = tested on: MCF-7 mammary gland adenocarcinoma cells; test: MTT antiproliferative assay, MCF-7; type: cell-based; conditions: Homo sapiens, MCF7, MTT, ± SD, read-out: GI50 in vitro Values, MCF-7
Procedure: as §1, §2, §3, §4

[3] = tested on: A549 non-small-cell lung cancer cells; test: MTT antiproliferative assay, A549; type: cell-based; conditions: Homo sapiens
Procedure: as §2, §3, §4

[4] = tested on: U-87 glioblastoma cells; test: MTT antiproliferative assay, U-87; type: cell-based; conditions: Homo sapiens, Table 6, 48 h, ± SD, read-out: GI50 in vitro Values, U-87
Procedure: as §3, §4

[5] = tested on: HeLa, MCF-7, U-87 and A549 cells; test: MTT antiproliferative activity, statements for four-cell-line panel; type: cell-based, human; conditions: MCF-7, U-87, A549, 48 h
Procedure: The antiproliferative effects of compounds 13 and 18-23 were studied in a more challenging cell line panel that, in addition to the previously utilized HeLa and MCF-7, contained in vitro models for cancers known to be associated with poor prognoses, such as the U-87 human glioblastoma and A549 human non-small-cell lung (NSCLC) carcinoma.
as §4

[6] = tested on: U373 glioblastoma cells; test: MTT antiproliferative assay, U373; type: cell-based, human; conditions: U373 MG
Procedure: as §2, §3
as §4, with “Cells treated with 0.1% DMSO were used as a control, and 1 μM phenyl arsine oxide (PAO) was used as a positive killing control.” left out

[7] = tested on: SKMEL-28 melanoma cells; test: MTT antiproliferative assay, SKMEL-28; type: cell-based, human; conditions: SK-MEL-28
Procedure: as §2, §3
as §4, with “Cells treated with 0.1% DMSO were used as a control, and 1 μM phenyl arsine oxide (PAO) was used as a positive killing control.” left out

[8] = tested on: U373 glioblastoma cells; test: Quantitative videomicroscopy, U373; type: cell-based, human; conditions: U373, at MTT-based GI50 value
Description: (§5) Poor prognoses of glioblastoma, melanoma and NSCLC patients are generally attributed to the drug resistant nature of these malignanciesand therefore it was encouraging that 7-deazahypoxanthines 13 and 18-23 were active against the U87 human glioblastoma and A549 NSCLC carcinoma cell lines. Since tubulin-targeting agents are generally poorly effective against cancer cells resistant to the induction of apoptosis, compound 22 was further evaluated against U373 human glioblastoma and SKMEL human melanoma cells, reported to display apoptosis resistance. […] Computer-assisted phase-contrast microscopy (quantitative videomicroscopy) was utilized to confirm cell death as the principal mechanism of action associated with this compound's in vitro growth inhibitory effects in these cell lines.
(§6) The effects of 22 on the viability of human U373 glioblastoma and SKMEL melanoma cells were characterized in vitro using computer-assisted phase contrast video microscopy, as described elsewhere.

[9] = tested on: SKMEL melanoma cells; test: Quantitative videomicroscopy, SKMEL; type: cell-based, human; conditions: at MTT-based GI50 value
Description: as §5, §6

[10] = tested on: UM-SCC10A head and neck cancer cells; test: MTT antiproliferative assay, UM-SCC10A; type: cell-based; conditions: UMSCC-10A, Table 1A, 48 h, read-out: Concentration required to reduce the viability of cells by 50%, UM-SCC10A
Procedure: as §2

[11] = tested on: UM-SCC22A head and neck cancer cells; test: MTT antiproliferative assay, UM-SCC22A; type: cell-based; conditions: Table 1A, 48 h, read-out: Concentration required to reduce the viability of cells by 50%, UM-SCC22A
Procedure: as §2

[12] = tested on: UM-SCC10B head and neck metastases cells; test: MTT antiproliferative assay, UM-SCC10B; type: cell-based; conditions: Table 1A, 48 h, read-out: Concentration required to reduce the viability of cells by 50%, UM-SCC10B
Procedure: as §2

[13] = tested on: UM-SCC22B head and neck metastases cells; test: MTT antiproliferative assay, UM-SCC22B; type: cell-based; conditions: Homo sapiens, UMSCC22B, Table 1A, 48 h, read-out: Concentration required to reduce the viability of cells by 50%, UM-SCC22B
Procedure: as §2

[14] = tested on: Hs683 anaplastic oligodendroglioma cells; test: MTT antiproliferative assay, Hs683; type: cell-based; conditions: Homo sapiens, Hs 683, Table 2, 48 h, read-out: GI50 in vitro values, Hs683
Procedure: as §2

[15] = tested on: B16F10 melanoma cells; test: MTT antiproliferative assay, B16F10; type: cell-based; conditions: Mus musculus, B16-F10, Table 2, 48 h, read-out: GI50 in vitro values, B16F10
Procedure: as §2

[16] = tested on: GEO colon cancer cells; test: MTT antiproliferative assay, GEO; type: cell-based; conditions: Table 1A, 48 h, read-out: Concentration required to reduce the viability of cells by 50%, GEO
Procedure: as §2

[17] = tested on: HCT8 colon cancer cells; test: MTT antiproliferative assay, HCT8; type: cell-based; conditions: Homo sapiens, HCT-8, Table 1A, 48 h, read-out: Concentration required to reduce the viability of cells by 50%, HCT8
Procedure: as §2

[18] = tested on: SW480 colon cancer cells; test: MTT antiproliferative assay, SW480; type: cell-based; conditions: Homo sapiens, Table 1A, 48 h, read-out: Concentration required to reduce the viability of cells by 50%, SW480
Procedure: as §2

[19] = tested on: SW620 colon cancer cells; test: MTT antiproliferative assay, SW620; type: cell-based; conditions: Homo sapiens, SW-620, Table 1A, 48 h, read-out: Concentration required to reduce the viability of cells by 50%, SW620
Procedure: as §2

[20] = tested on: MES-SA uterine sarcoma cells; test: MTT antiproliferative assay, MES-SA; type: cell-based; conditions: Homo sapiens, Table 3, parental drug-responsive cell line, read-out: GI50 in vitro Values, MES-SA
Procedure: as §1, with “The other cell lines were maintained in a similar fashion as previously described.” left out
To evaluate antiproliferative properties of the compounds of Formula I, mitochondrial dehydrogenase activities were measured using the MTT assay. […] Media was removed and the resulting formazan crystals were re-solubilized in 100 microL of DMSO and the optical density (OD) was measured using a Thermomax Molecular Device plate reader at a wavelength of 490 nm. […]
The cells of such tumors are referred to as multidrug resistant (MDR). Thus, we assessed the compounds of Formula I for antiproliferative activity in an MDR cancer cell line. […]

[21] = tested on: MES-SA/Dx5 uterine sarcoma cells (overexpress p-gp); test: MTT antiproliferative assay, MDR MES-SA/Dx5; type: cell-based, human
Procedure: as §1, §2
The cells of such tumors are referred to as multidrug resistant (MDR). Thus, we assessed the compounds of Formula I for antiproliferative activity in an MDR cancer cell line. This was done using the uterine sarcoma cells, MES-SA/Dx5, which overexpress p-gp. The parental drug-responsive MES-SA cell line was used as control.

[22] = Table 6, 48 h, ± SD, read-out: GI50 in vitro Values, A549
[23] = Homo sapiens, Table 2, 48 h, MTT, read-out: GI50 in vitro values, U373
[24] = Table 2, 48 h, read-out: GI50 in vitro values, A549
[25] = Homo sapiens, Table 2, 48 h, MTT, read-out: GI50 in vitro values, SKMEL-28

Structure (SMILES)	GI50 ([1]; Table 6, 48 h) [nM]	GI50 ([2]; Table 6, 48 h) [nM]	GI50 [3, 22] [nM]	GI50 [4] [µM]	GI50 ([1]; Table 1, 48 h treatment) [nM]	GI50 ([2]; Table 1, 48 h treatment) [nM]	GI50 [6, 23] [nM]	GI50 [14] [nM]	GI50 [3, 24] [nM]	GI50 [7, 25] [nM]	GI50 [15] [nM]	also measured
Cc1nc(=O)c2c(-c3cccnc3)c(C(=O)c3ccccc3)[nH]c2[nH]1 [Compound 21, 6-Benzoyl-2-methyl-5-(pyridin-3-yl)-1H-pyrrolo[2,3-d]pyrimidin-4(7H)-one]	3100 ± 100	4700 ± 800	12000 ± 1400	9.23 ± 2.13								antiproliferative potencies (in words) [5]: single-digit micromolar potencies
Cc1nc(=O)c2c(-c3cncc(Br)c3)c(C(=O)c3ccccc3)[nH]c2[nH]1 [Compound 22, 6-Benzoyl-5-(5-bromopyridin-3-yl)-2-methyl-1H-pyrrolo[2,3-d]pyrimidin-4(7H)-one]	490 ± 50	610 ± 10	1100 ± 400	2.4 ± 0.6								GI50 ([6]; apoptosis-resistant U373 human glioblastoma, read-out: MTT-based GI50 value, U373): 300 nM; GI50 ([7]; apoptosis-resistant SKMEL human melanoma, read-out: MTT-based GI50 value, SKMEL): 300 nM; mechanism of growth inhibition by videomicroscopy (in words) [8]: inhibited cancer cell proliferation by inducing cell death; mechanism of growth inhibition by videomicroscopy (in words) [9]: inhibited cancer cell proliferation by inducing cell death
O=C(c1ccccc1)c1[nH]c2[nH]cnc(=O)c2c1-c1cncc(Br)c1 [Rig9, 6-Benzoyl-5-(5-bromopyridin-3-yl)-1H-pyrrolo[2,3-d]pyrimidin-4(7H)-one]					80 ± 25	87 ± 20	30	20	20	20	40	IC50 [10]: 90 nM; IC50 [11]: 120 nM; IC50 [12]: 130 nM; IC50 [13]: 20 nM
O=C(c1ccccc1)c1[nH]c2[nH]cnc(=O)c2c1-c1ccccc1 [Rig35, 6-Benzoyl-5-phenyl-1H-pyrrolo[2,3-d]pyrimidin-4(7H)-one]					35 ± 7	40 ± 24	< 10	10	20	< 10	10	IC50 [16]: 8 nM; IC50 [17]: < 1 nM; IC50 [18]: < 1 nM; IC50 [19]: < 1 nM; GI50 [20]: 30 ± 4 nM; GI50 ([21]; Homo sapiens, MES-SA/Dx5, Table 3, MDR cell line, read-out: GI50 in vitro Values, MES-SA/Dx5): 70 ± 4 nM; variation in the sensitivities of the parental and MDR cell lines ([21]; MES-SA/Dx5 vs MES-SA, in words): only a small variation
